In PubChem BioAssay AID248 (DTP/NCI, 2004):
Where “and” joins values, the source holds several entries; their conditions need not be identical. Identical values can stand only once. Inconclusive results and toxic doses are left out. Cut-off read from the data, not from the text of the source: active = T/C of 150% or more; inactive = T/C below 125%.

Test system: L1210 leukemia ip in BDF1 mice, survival T/C
Experiment: NCI In Vivo Anticancer Drug Screen. Data for tumor model L1210 Leukemia (intraperitoneal) in B6D2F1 (BDF1) mice
Conditions: endpoint: mean survival time, higher = longer survival
Procedure, shortened: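 Antitumor effect is assessed in tumor-bearing animals. Survival in the compound arm is compared with a vehicle-dosed control arm and expressed as their quotient.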

[1] = dose: 100.0 mg/kg/injection, schedule: Q01DX001 (ip), vehicle: saline
[2] = dose: 200.0 mg/kg/injection, schedule: Q01DX001 (ip), vehicle: saline
[3] = dose: 400.0 mg/kg/injection, schedule: Q01DX001 (ip), vehicle: saline
[4] = dose: 100.0 mg/kg/injection, schedule: Q01DX009 (ip), vehicle: saline with Tween-80
[5] = dose: 100.0 mg/kg/injection, schedule: Q04DX003 (ip), vehicle: Klucel (hydroxypropylcellulose) (HPC)
[6] = dose: 200.0 mg/kg/injection, schedule: Q01DX009 (ip), vehicle: saline with Tween-80
[7] = dose: 400.0 mg/kg/injection, schedule: Q01DX009 (ip), vehicle: saline with Tween-80
[8] = dose: 400.0 mg/kg/injection, schedule: Q04DX003 (ip), vehicle: Klucel (hydroxypropylcellulose) (HPC)
[9] = dose: 100.0 mg/kg/injection, schedule: Q01DX009 (ip), vehicle: Klucel (hydroxypropylcellulose) (HPC)
[10] = dose: 200.0 mg/kg/injection, schedule: Q01DX009 (ip), vehicle: Klucel (hydroxypropylcellulose) (HPC)
[11] = dose: 200.0 mg/kg/injection, schedule: Q04DX003 (ip), vehicle: Klucel (hydroxypropylcellulose) (HPC)
[12] = dose: 400.0 mg/kg/injection, schedule: Q01DX009 (ip), vehicle: Klucel (hydroxypropylcellulose) (HPC)
[13] = dose: 200.0 mg/kg/injection, schedule: Q01DX001 (ip), vehicle: saline with Tween-80
[14] = dose: 400.0 mg/kg/injection, schedule: Q01DX001 (ip), vehicle: saline with Tween-80
[15] = dose: 50.0 mg/kg/injection, schedule: Q01DX009 (ip), vehicle: saline with Tween-80
[16] = dose: 100.0 mg/kg/injection, schedule: Q04DX003 (ip), vehicle: saline

Measured: T/C

Cc1cccc(NCC(=O)NN)c1C
inactive: dose: 50.0 mg/kg/injection, schedule: Q01DX009 (ip), vehicle: carboxymethylcellulose (CMC) 102 % of control and 104 % of control | dose: 50.0 mg/kg/injection, schedule: Q04DX002 (ip), vehicle: carboxymethylcellulose (CMC) 96 % of control and 101 % of control | dose: 50.0 mg/kg/injection, schedule: Q04DX003 (ip), vehicle: carboxymethylcellulose (CMC) 102 % of control | dose: 100.0 mg/kg/injection, schedule: Q01DX009 (ip), vehicle: carboxymethylcellulose (CMC) 104 % of control and 106 % of control | dose: 100.0 mg/kg/injection, schedule: Q04DX002 (ip), vehicle: carboxymethylcellulose (CMC) 101 % of control and 103 % of control | dose: 100.0 mg/kg/injection, schedule: Q04DX003 (ip), vehicle: carboxymethylcellulose (CMC) 102 % of control | dose: 200.0 mg/kg/injection, schedule: Q01DX009 (ip), vehicle: carboxymethylcellulose (CMC) 97 % of control | dose: 200.0 mg/kg/injection, schedule: Q04DX002 (ip), vehicle: Klucel (hydroxypropylcellulose) (HPC) 92 % of control | dose: 200.0 mg/kg/injection, schedule: Q04DX002 (ip), vehicle: carboxymethylcellulose (CMC) 104 % of control and 107 % of control | dose: 200.0 mg/kg/injection, schedule: Q04DX003 (ip), vehicle: carboxymethylcellulose (CMC) 90 % of control | dose: 400.0 mg/kg/injection, schedule: Q04DX002 (ip), vehicle: Klucel (hydroxypropylcellulose) (HPC) 113 % of control

O=C(c1ccccc1)c1ccc(Cl)c([N+](=O)[O-])c1
inactive: dose: 50.0 mg/kg/injection, schedule: Q01DX001 (ip), vehicle: saline 103 % of control | [1] 100 % of control | [2] 91 % of control | [3] 97 % of control

O=C1OC(c2ccccc2)(c2ccccc2)Cc2ccccc21
inactive: [4] 97 % of control | [5] 93 % of control | [6] 106 % of control | [7] 95 % of control | [8] 86 % of control

CC(C)OC(=O)Nc1cccc(NC(=O)OCCCl)c1
inactive: dose: 100.0 mg/kg/injection, schedule: Q04DX002 (ip), vehicle: saline with Tween-80 97 % of control | dose: 200.0 mg/kg/injection, schedule: Q04DX002 (ip), vehicle: saline with Tween-80 101 % of control | dose: 400.0 mg/kg/injection, schedule: Q04DX002 (ip), vehicle: saline with Tween-80 97 % of control

O=[N+]([O-])c1ccc(OCc2ccc(Cl)c(S(=O)(=O)F)c2)c(Cl)c1
inactive: dose: 100.0 mg/kg/injection, schedule: Q01DX001 (ip), vehicle: gum acacia 102 % of control | dose: 200.0 mg/kg/injection, schedule: Q01DX001 (ip), vehicle: gum acacia 102 % of control | dose: 400.0 mg/kg/injection, schedule: Q01DX001 (ip), vehicle: gum acacia 98 % of control

O=C1c2cc(Cl)ccc2-c2c(NC(=O)C(Cl)Cl)cc(Cl)cc21
inactive: dose: 100.0 mg/kg/injection, schedule: Q01DX001 (ip), vehicle: carboxymethylcellulose (CMC) 91 % of control | dose: 200.0 mg/kg/injection, schedule: Q01DX001 (ip), vehicle: carboxymethylcellulose (CMC) 93 % of control | dose: 400.0 mg/kg/injection, schedule: Q01DX001 (ip), vehicle: carboxymethylcellulose (CMC) 96 % of control

OC(Cc1[nH]c2ccccc2c1C(O)(C(F)(F)F)C(F)(F)F)(C(F)(F)F)C(F)(F)F
inactive: dose: 100.0 mg/kg/injection, schedule: Q04DX003 (ip), vehicle: other 109 % of control | dose: 200.0 mg/kg/injection, schedule: Q04DX003 (ip), vehicle: other 109 % of control | dose: 400.0 mg/kg/injection, schedule: Q04DX003 (ip), vehicle: other 98 % of control

CCCCCCCCCCCC(=O)NC(CCC(=O)O)C(=O)O (stereo unspecified)
inactive: [1] 111 % of control | [2] 103 % of control | [3] 105 % of control

Cn1c(=O)c2n[se]nc2n(C)c1=O
inactive: dose: 3.12 mg/kg/injection, schedule: Q01DX009 (ip), vehicle: Klucel (hydroxypropylcellulose) (HPC) 91 % of control | dose: 3.12 mg/kg/injection, schedule: Q04DX002 (ip), vehicle: Klucel (hydroxypropylcellulose) (HPC) 102 % of control | dose: 6.25 mg/kg/injection, schedule: Q01DX009 (ip), vehicle: Klucel (hydroxypropylcellulose) (HPC) 94 % of control | dose: 6.25 mg/kg/injection, schedule: Q04DX002 (ip), vehicle: Klucel (hydroxypropylcellulose) (HPC) 105 % of control | dose: 12.5 mg/kg/injection, schedule: Q04DX002 (ip), vehicle: Klucel (hydroxypropylcellulose) (HPC) 108 % of control and 111 % of control | dose: 25.0 mg/kg/injection, schedule: Q04DX002 (ip), vehicle: Klucel (hydroxypropylcellulose) (HPC) 108 % of control

COc1cc2c(cc1OC)N(S(=O)(=O)c1ccc(C)cc1)CCCC2=O
inactive: [9] 96 % of control | [5] 96 % of control | [10] 91 % of control | [11] 93 % of control | [12] 93 % of control | [8] 102 % of control

O=S(=O)(CCCS(=O)(=O)Nc1ccccc1)Nc1ccccc1
inactive: dose: 100.0 mg/kg/injection, schedule: Q01DX001 (ip), vehicle: saline with Tween-80 103 % of control | [13] 97 % of control | [14] 90 % of control

Cc1ccc(Cl)cc1NC(=O)c1ccc([N+](=O)[O-])cc1
inactive: [15] 91 % of control | [4] 86 % of control

O=c1[nH]nc(N2CCOCC2)c(=O)[nH]1
inactive: [1] 104 % of control | [2] 104 % of control | [3] 96 % of control

COc1ccc(NC(=S)N(C)C)cc1
inactive: [4] 98 % of control | [6] 110 % of control | [7] 98 % of control

COc1cccc2c1CCc1cc3c(nc1-2)-c1cccc(OC)c1CC3
inactive: [5] 103 % of control | [11] 100 % of control | [8] 101 % of control

CSC(N)=S
inactive: dose: 50.0 mg/kg/injection, schedule: Q01DX009 (ip), vehicle: saline 96 % of control | dose: 50.0 mg/kg/injection, schedule: Q04DX003 (ip), vehicle: saline 97 % of control | dose: 100.0 mg/kg/injection, schedule: Q01DX009 (ip), vehicle: saline 94 % of control | [16] 99 % of control | dose: 200.0 mg/kg/injection, schedule: Q04DX003 (ip), vehicle: saline 99 % of control

CC1=CC(O)Nc2c(CBr)cccc21 (stereo unspecified)
inactive: dose: 25.0 mg/kg/injection, schedule: Q01DX009 (ip), vehicle: saline with Tween-80 97 % of control | [15] 103 % of control | [1] 107 % of control | [16] 101 % of control | [2] 95 % of control | [3] 91 % of control

c1ccc([Si](c2ccccc2)(c2ccccc2)c2ccc(-c3ccc([Si](c4ccccc4)(c4ccccc4)c4ccccc4)cc3)cc2)cc1
inactive: [13] 90 % of control | [14] 88 % of control

O=C(Nc1ccccc1F)OCCOc1ccc([N+](=O)[O-])cc1
inactive: [9] 96 % of control | [10] 100 % of control | [12] 94 % of control

c1ccc(CN2CCn3nccc32)cc1
inactive: dose: 25.0 mg/kg/injection, schedule: Q01DX009 (ip), vehicle: other 104 % of control | dose: 50.0 mg/kg/injection, schedule: Q01DX009 (ip), vehicle: other 96 % of control | dose: 100.0 mg/kg/injection, schedule: Q01DX009 (ip), vehicle: other 104 % of control | dose: 200.0 mg/kg/injection, schedule: Q01DX009 (ip), vehicle: other 95 % of control

O=C(O)Cc1c(-c2ccccn2)[nH]c2ccccc12
inactive: dose: 75.0 mg/kg/injection, schedule: Q01DX001 (ip), vehicle: acetone 103 % of control | dose: 150.0 mg/kg/injection, schedule: Q01DX001 (ip), vehicle: acetone 102 % of control | dose: 300.0 mg/kg/injection, schedule: Q01DX001 (ip), vehicle: acetone 94 % of control

Oc1ccc2ccc3[nH]cnc3c2c1
inactive: [9] 101 % of control | [5] 95 % of control | [10] 104 % of control | [11] 95 % of control | [12] 97 % of control | [8] 94 % of control

COc1ccccc1NC(=O)Nc1ccccc1C
inactive: [9] 96 % of control | [5] 94 % of control | [10] 89 % of control | [11] 100 % of control | [12] 94 % of control | [8] 90 % of control
